Data taken from PMC8151276, “An Integrated Approach toward NanoBRET Tracers for Analysis of GPCR Ligand Engagement” (Molecules, 2021).

Target: T1, NPY5R (Homo sapiens, UniProt Q15761)
T1 construct: purchased Promega (in-house HiBiT-GPCR construct library, NanoBRET)
T1 sequence (Q15761 1-445): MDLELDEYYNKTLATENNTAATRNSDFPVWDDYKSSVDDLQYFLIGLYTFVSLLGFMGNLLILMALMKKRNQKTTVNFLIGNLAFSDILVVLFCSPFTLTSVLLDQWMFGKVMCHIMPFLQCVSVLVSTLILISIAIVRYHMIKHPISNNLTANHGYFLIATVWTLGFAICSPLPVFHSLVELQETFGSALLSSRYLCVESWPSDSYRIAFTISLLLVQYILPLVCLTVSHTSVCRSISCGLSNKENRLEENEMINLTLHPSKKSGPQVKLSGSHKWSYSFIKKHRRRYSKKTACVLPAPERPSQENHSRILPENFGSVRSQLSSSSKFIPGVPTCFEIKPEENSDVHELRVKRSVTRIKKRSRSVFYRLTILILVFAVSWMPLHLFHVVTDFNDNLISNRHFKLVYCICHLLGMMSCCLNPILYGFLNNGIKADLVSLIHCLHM
Test: NanoBRET screen HiBiT-NPY5R in HEK293
Format: binding
Procedure: Each tracer candidate was screened across the entire library of HiBiT-GPCR constructs using NanoBRET as the detection modality. As depicted in Figure 4A, the specificity of interactions was evaluated through decrease in BRET due to competitive displacement of a bound tracer by excess parental compound. Each tracer was analyzed for binding to each HiBiT-GPCR fusion in the absence and in the presence of competing parental compound. Briefly, HEK293 cells were transfected with HiBiT-GPCR constructs diluted into promoterless DNA to reduce expression and maximize translocation to the cell surface. Each tracer candidate was then screened at concentrations of 1 μM and 0.1 μM across cells expressing these fusions. Cells were treated for 1.5 h with tracer either alone or in the presence of 20 μM competing parental compound (i.e., control). BRET was measured upon addition of purified LgBiT and subsequent complementation with HiBiT genetically fused to a GPCR. The specificity of interactions was assessed through a decrease in BRET signal due to competitive displacement of the bound tracer. To further gauge the robustness of these interactions, the fold response over the control (i.e., BRETtracer/BRETcontrol) was calculated. We chose a 1.5-fold response, which translates to ≥7-fold signal over noise as the minimal threshold required to score an interaction as positive.
HiBiT-GPCR DNA constructs were diluted in 10 mM Tris pH 8 to a final concentration of 0.01 μg/μL, arrayed in 96-well plates and stored at −20 °C. For transfection, HEK293 cells were suspended in Opti-MEM (without phenol red) supplemented with 2% fetal bovine serum (Seradigm) and 100 units/mL penicillin–streptomycin (Gibco) at a final concentration of 220,000 cells/mL and dispensed into white 96-well plates at 90 μL/well. Subsequent transfections and screens were carried using an Agilent Bravo Automated Liquid Handling Platform. First, the 96-well HiBiT DNA arrays were diluted 25-fold in Opti-MEM (without serum or phenol red) to a final concentration of 0.0004 μg/μL and 20 μL of the diluted DNAs were transferred into new 96-well plates. Next, promoterless carrier DNA (1 μg/μL) was diluted 25-fold (0.04 μg/μL) and then dispensed into the diluted arrays at 20 μL/well. Following brief mixing, Viafect transfection reagent (Promega) diluted 16-fold into Opti-MEM was dispensed into the plates at 40 μL/well. After mixing by pipetting, plates were incubated for 10 min on the pipetting station deck. The DNA-transfection reagent complexes were then added to plates containing cells. To facilitate the screen, 10 μL of DNA-transfection reagent complexes were added in duplicates to the top 4 and bottom 4 rows, resulting in two identical 48-well arrays per plate. Plates with transfected cells were incubated for 18–20 h at 37 °C/5% CO2. A screen of each tracer across the entire library using two different concentrations requires duplicate plates of transfected cells. Depending on the number of tracers being screened, transfections can be scaled up using the same ratios. The next day, for each tracer, four 20× screening solutions in tracer dilution buffer (Promega) were prepared: two duplicates at final concentration of 20 μM and two duplicates at a final concentration of 2 μM. […] The four resulting solutions were diluted 4-fold in Opti-MEM without serum or phenol red to generate 5× solutions (5 µM and 0.5 µM tracer +/− 100 μM competing compound). To screen the library, a BioTek MultiFlo FX liquid dispenser was used to dispense 22.5 µL of tracer solution to the top 4 rows and 22.5 µL tracer + competing compound solution to the 4 bottom rows. Plates were briefly mixed on an orbital shaker and incubated for 1.5 h at room temperature. […] Plates were briefly mixed on an orbital shaker and incubated for 15 min to allow complementation.

SMILES	NanoBRET Fold Response (NPY5R, tracer 0.1μM)	NanoBRET Fold Response (NPY5R, tracer 1μM)	also measured
CCOC(=O)c1cc(C#N)c(N2CCC(C(=O)NS(=O)(=O)Cc3ccccc3/C=C/C(=O)NCCNC(=O)CCc3ccc4n3[B-](F)(F)[N+]3=C(c5ccc[nH]5)C=CC3=C4)CC2)nc1C [AZD1283-1-NB590]	–	–	NanoBRET Fold Response (NPY5R, 0.1μM): 1.01; NanoBRET Fold Response (NPY5R, 1μM): 1.03
N#CN=C(NCCCOc1cccc(CN2CCCCC2)c1)NCCNC(=O)CCOCCOCCOCCOCCNC(=O)CCc1ccc2n1[B-](F)(F)[N+]1=C(c3ccc[nH]3)C=CC1=C2 [Aminopotentidine-2-NB590]	1.04	0.97	–
CN(C)CCC=C1c2ccccc2CCc2ccc(C(=O)NCCNC(=O)CCOCCOCCOCCOCCNC(=O)CCc3ccc4n3[B-](F)(F)[N+]3=C(c5ccc[nH]5)C=CC3=C4)cc21 [Amitriptyline-a-2-NB590]	–	–	NanoBRET Fold Response (tracer at 0.1μM): 1.03; NanoBRET Fold Response (tracer at 1μM): 0.99
CN(C)CCC=C1c2ccccc2CCc2ccc(C(=O)NCCNC(=O)CCOCCOCCOCCOCCNC(=O)CCc3ccc4n3[B-](F)(F)[N+]3=C(c5ccc[nH]5)C=CC3=C4)cc21 [Amitriptyline-b-2-NB590]	–	–	NanoBRET Fold Response (tracer at 0.1μM, listed as amitriptyline-b-2-NB590): 0.89; NanoBRET Fold Response (tracer at 1μM, listed as amitriptyline-b-2-NB590): 1.02
COc1ccc2c(n1)c(CCNC(C)=O)cn2CCNC(=O)CCc1ccc2n1[B-](F)(F)[N+]1=C(c3ccc[nH]3)C=CC1=C2 [Azamelatonin-1-NB590]	–	–	NanoBRET Fold Response (0.1μM tracer): 1.14; NanoBRET Fold Response (1μM tracer): 1.09
COc1ccc2[nH]c(-c3ccc(CNC(=O)CCOCCOCCOCCOCCNC(=O)CCc4ccc5n4[B-](F)(F)[N+]4=C(c6ccc[nH]6)C=CC4=C5)cc3)c(CCNC(C)=O)c2n1 [AzomelatoninICO9-2-NB590]	–	–	NanoBRET Fold Response (0.1μM tracer): 0.91; NanoBRET Fold Response (1μM tracer): 1.07
O=C(CCOCCOCCOCCOCCNC(=O)CCc1ccc2n1[B-](F)(F)[N+]1=C(c3ccc[nH]3)C=CC1=C2)NCCCN1CCN(C2=Nc3cc(Cl)ccc3Nc3ccccc32)CC1 [Clozapine-a-2-NB590]	–	–	NanoBRET Fold Response (NPY5R, 0.1μM tracer): 1.15; NanoBRET Fold Response (NPY5R, 1μM tracer): 0.96
CN1CCN(C2=Nc3cc(Cl)ccc3Nc3ccc(CNC(=O)CCOCCOCCOCCOCCNC(=O)CCc4ccc5n4[B-](F)(F)[N+]4=C(c6ccc[nH]6)C=CC4=C5)cc32)CC1 [Clozapine-b-2-NB590]	–	–	NanoBRET Fold Response (NPY5R, 0.1μM tracer): 1.02; NanoBRET Fold Response (NPY5R, 1μM tracer): 1.04
CN1CCN(C2=Nc3cc(Cl)ccc3N(CC(=O)NCCOCCOCCOCCOCCNC(=O)CCc3ccc4n3[B-](F)(F)[N+]3=C(c5ccc[nH]5)C=CC3=C4)c3ccccc32)CC1 [Clozapine-c-2-NB590]	–	–	NanoBRET Fold Response (NPY5R, 0.1μM tracer): 0.99; NanoBRET Fold Response (NPY5R, 1μM tracer): 0.97
O=C(CCOCCOCCOCCOCCNC(=O)CCc1ccc2n1[B-](F)(F)[N+]1=C(c3ccc[nH]3)C=CC1=C2)NCCCN1CCN(C2=Nc3ccccc3Oc3ccc(Cl)cc32)CC1 [Loxapine-a-2-NB590]	0.96	1.09	–
COc1ccccc1N1CCN(CCCCN2C(=O)c3ccc(CNC(=O)CCOCCNC(=O)c4ccc(CNC(=O)CCc5ccc6n5[B-](F)(F)[N+]5=C(c7ccc[nH]7)C=CC5=C6)cc4)cc3C2=O)CC1 [NAN-190-3-NB590]	1.01	0.97	–
Cc1cc2c(s1)Nc1ccccc1N=C2N1CCN(CCCNC(=O)CCOCCOCCOCCOCCNC(=O)CCc2ccc3n2[B-](F)(F)[N+]2=C(c4ccc[nH]4)C=CC2=C3)CC1 [Olanzapine-a-2-NB590]	1.00	1.01	–
O=C(CCc1ccc2n1[B-](F)(F)[N+]1=C(c3ccc[nH]3)C=CC1=C2)NCc1ccc(C(=O)NCCOCCOCCNCC(O)COc2cccc3ccccc23)cc1 (stereo not drawn) [Propranolol-3-NB590]	–	–	NanoBRET Fold Response (NPY5R, 0.1μM): 0.99; NanoBRET Fold Response (NPY5R, 1μM): 1.01
O=C(CCc1ccc2n1[B-](F)(F)[N+]1=C(c3ccc[nH]3)C=CC1=C2)NCCOCCOCCNC(=O)OCCOCCN1CCN(C2=Nc3ccccc3Sc3ccccc32)CC1 [Quetiapine-a-2-NB590]	0.98	0.87	–
Cc1nc2n(c(=O)c1CCN1CCC(c3noc4cc(F)ccc34)CC1)CCCC2OC(=O)NCCOCCOCCOCCOCCNC(=O)CCc1ccc2n1[B-](F)(F)[N+]1=C(c3ccc[nH]3)C=CC1=C2 (stereo not drawn) [Risperidone-2-NB590]	0.97	0.96	–
CC(C)N(CC[C@H](c1ccccc1)c1cc(CCNC(=O)CCOCCOCCOCCOCCNC(=O)CCc2ccc3n2[B-](F)(F)[N+]2=C(c4ccc[nH]4)C=CC2=C3)ccc1O)C(C)C [Tolterodine-2-NB590]	0.95	0.95	–
CC(C)N(CC[C@H](c1ccccc1)c1cc(CCNC(=O)c2ccc(CNC(=O)CCc3ccc4n3[B-](F)(F)[N+]3=C(c5ccc[nH]5)C=CC3=C4)cc2)ccc1O)C(C)C [Tolterodine-BZ-NB590]	1.05	0.99	–
CCCn1c(=O)c2[nH]c(-c3ccc(OCC(=O)NCCNC(=O)CCOCCNC(=O)c4ccc(CNC(=O)CCc5ccc6n5[B-](F)(F)[N+]5=C(c7ccc[nH]7)C=CC5=C6)cc4)cc3)nc2n(CCC)c1=O [XAC-3-NB590]	1.02	1.10	–
